Source: patent publication US9102622B2 (University of Connecticut, priority 2006, dated 2015)
Where two headings read alike, the source gives them in different places.

Target: fatty acid amide hydrolase (FAAH) (Rattus norvegicus (Rat), UniProt P97612)
Test: FAAH enzyme assay: inhibition of anandamide (AEA) hydrolysis, arachidonic acid quantified by HPLC
Format: biochemical
Conditions: for inhibition at 0.1 µM / inhibition at 100 µM: one-point assay, partially purified rat brain FAAH, 15 min, read-out: % Inhibition (Concentration); for inhibition at 0.1 µM: inhibitor 100 nM; for inhibition at 100 µM: inhibitor 100 μM
Protocol: The resulting supernatant is injected onto the HPLC.

[1] = eight-point assay, anandamide hydrolysis by FAAH, read-out: IC50
[2] = eight-point assay, calculated with Prizm software, read-out: Ki

fatty acid amide hydrolase (FAAH), sequence (P97612 whole entry): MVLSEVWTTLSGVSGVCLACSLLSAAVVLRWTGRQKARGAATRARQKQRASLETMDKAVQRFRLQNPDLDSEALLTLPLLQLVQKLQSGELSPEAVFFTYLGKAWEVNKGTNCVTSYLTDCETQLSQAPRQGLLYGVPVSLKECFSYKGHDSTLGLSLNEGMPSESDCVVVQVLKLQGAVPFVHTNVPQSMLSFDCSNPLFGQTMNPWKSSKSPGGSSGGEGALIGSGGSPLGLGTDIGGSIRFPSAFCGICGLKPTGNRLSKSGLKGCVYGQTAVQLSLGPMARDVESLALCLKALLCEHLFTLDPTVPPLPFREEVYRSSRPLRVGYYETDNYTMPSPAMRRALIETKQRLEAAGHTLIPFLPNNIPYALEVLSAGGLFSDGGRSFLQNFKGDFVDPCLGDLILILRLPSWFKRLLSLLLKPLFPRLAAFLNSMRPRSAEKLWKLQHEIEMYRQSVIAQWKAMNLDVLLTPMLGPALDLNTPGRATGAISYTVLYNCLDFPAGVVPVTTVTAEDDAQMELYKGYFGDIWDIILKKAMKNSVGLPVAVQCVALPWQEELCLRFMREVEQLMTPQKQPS

**Q.** What does the source list for `O=C(c1cccnc1)C(F)(F)CCCCOc1cccc(OCc2ccccc2)c1` [Compound 89.11, 2,2-Difluoro-6-[3-(benzyloxy)phenoxy]-1-(pyridin-3-yl)-hexan-1-one]?
**A.** IC50 [1]: 24 nM; Ki [2]: 7 nM; inhibition at 0.1 µM: 85%

**Q.** Which inhibition at 100 µM does the source give for `CCCCCCc1ccc(O)c(-c2ccc(C(=O)C(F)(F)F)cc2)c1OC` [Compound 40.3, 2,2,2-Trifluoro-1-(3′-hexyl-6′-hydroxy-2′-methoxybiphenyl-4-yl)ethanone] here?
**A.** 81%

**Q.** `CCOC(=O)C(=O)CCCCOc1cccc(OCc2ccccc2)c1` [Compound 87.1] was tested. Which inhibition at 100 µM did it give?
**A.** 100%

**Q.** For `COc1ccc(CCCCC(=O)C(F)(F)F)cc1` [Compound 27.4, 1,1,1-Trifluoro-6-(4-methoxy-phenyl)-2-hexanone], which IC50 [1] is on record?
**A.** 6900 nM

**Q.** What about the Ki [2] of the same compound?
**A.** 600 nM

**Q.** What about the inhibition at 100 µM of the same compound?
**A.** 82%

**Q.** What does the source list for `O=C(CCCOc1ccc(O)cc1)C(F)(F)F` [Compound 24.1, 1,1,1-Trifluoro-5-[4-(hydroxy)phenoxy]-2-pentanone]?
**A.** IC50 [1]: 14900 nM; Ki [2]: 1700 nM; inhibition at 100 µM: 68%

**Q.** `O=C(CCCCCOc1cccc(O)c1)C(F)(F)F` [Compound 24.7, 1,1,1-Trifluoro-7-[3-(hydroxy)phenoxy]-2-heptanone] was tested. Which IC50 [1] did it give?
**A.** 5020 nM

**Q.** What about the Ki [2] of the same compound?
**A.** 440 nM

**Q.** What does the source list for `Cc1nnc(C(=O)C(F)(F)CCCCCCOc2ccccc2)o1` [Compound 89.7, 2,2-Difluoro-8-phenoxy-1-(5-methyl-1,3,4-oxadiazol-2-yl)-octan-1-one]?
**A.** IC50 [1]: 31 nM; Ki [2]: 9 nM

**Q.** For `O=C(Nc1ccc(Br)cc1)OC1CCCCC1` [Compound 48.1, (4-Bromophenyl)carbamic acid cyclohexyl ester], which inhibition at 100 µM is on record?
**A.** 25%

**Q.** How did the inhibition at 100 µM turn out when `O=C(NCc1ccc(Br)cc1)OCc1ccccc1` [Compound 57.2, (4-Bromobenzyl)carbamic acid benzyl ester] was run?
**A.** 89%

**Q.** `O=C(Cc1cccc(-c2cccc(OCc3ccccc3)c2)c1)C(F)(F)F` [Compound 35, 1,1,1-Trifluoro-3-(3-benzyloxy-biphenyl-3-yl)-2-propanone] was tested. Which inhibition at 100 µM did it give?
**A.** 54%

**Q.** What does the source list for `O=C(CCCCOc1cccc(OCc2ccccc2)c1)C(F)(F)F` [Compound 23.6, 1,1,1-Trifluoro-6-[3-(Benzyloxy)phenoxy]-2-hexanone]?
**A.** IC50 [1]: 6600 nM; Ki [2]: 470 nM; inhibition at 100 µM: 97%

**Q.** `O=C(c1ccccn1)C(F)(F)CCCCOc1ccccc1` [Compound 89.9, 2,2-Difluoro-6-phenoxy-1-(pyridin-2-yl)-hexan-1-one] was tested. Which IC50 [1] did it give?
**A.** 77 nM

**Q.** What about the Ki [2] of the same compound?
**A.** 24 nM

**Q.** And the inhibition at 0.1 µM?
**A.** 52%

**Q.** For `O=S(=O)(F)CCCCCCCc1ccccc1OCc1ccccc1` [Compound 13.3, 7-(2-Benzyloxy-phenyl)-heptanesulfonyl fluoride], which IC50 is on record?
**A.** 193 nM

**Q.** And the Ki?
**A.** 46 nM

**Q.** And the inhibition at 100 µM?
**A.** 100%

**Q.** Which inhibition at 100 µM does the source give for `O=S(=O)(F)CCCc1ccccc1` [Compound 4.1, 3-Phenyl-propanesulfonyl fluoride, reference compound] here?
**A.** 19%

**Q.** Which IC50 [1] does the source give for `O=C(CCCCc1ccccc1)C(F)(F)F` [Compound 27.2, 1,1,1-Trifluoro-6-phenyl-2-hexanone] here?
**A.** 18800 nM

**Q.** And the Ki [2]?
**A.** 2100 nM

**Q.** And the inhibition at 100 µM?
**A.** 53%

**Q.** `O=C(c1cccnc1)C(F)(F)CCCCOc1ccccc1` [Compound 89.10, 2,2-Difluoro-6-phenoxy-1-(pyridin-3-yl)-hexan-1-one] was tested. Which IC50 [1] did it give?
**A.** 164 nM

**Q.** And the Ki [2]?
**A.** 52 nM

**Q.** And the inhibition at 0.1 µM?
**A.** 33%

**Q.** Which inhibition at 100 µM does the source give for `O=C(c1cccc(Br)n1)C(F)(F)c1ccc(-c2ccccc2)cc1` [Compound 93.7, 2-(Biphenyl-4-yl)-1-(6-bromopyridin-2-yl)-2,2-difluoroethanone] here?
**A.** 94%

**Q.** Which IC50 [1] does the source give for `Oc1cccc(OCCCC(O)(O)C(F)(F)F)c1` [Compound 24.5, 1,1,1-Trifluoro-2,2-dihydroxy-5-[3-(hydroxy)phenoxy]pentane] here?
**A.** 22800 nM

**Q.** What about the Ki [2] of the same compound?
**A.** 2500 nM

**Q.** And the inhibition at 100 µM?
**A.** 79%

**Q.** For `CCCCCCC(C)(C)c1cc(O)c(-c2ccc(NC(=O)OCc3ccccc3)cc2)c(O)c1` [Compound 53.3, 2′,6′-Dihydroxy-4′-(2-methyloctane-2-yl)biphenyl-4-yl carbamic acid benzyl ester], which inhibition at 100 µM is on record?
**A.** 89%
